Several values for one entry are separate records, joined by “and”; a condition that tells them apart may be missing. Identical values can stand only once.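 48-hour exposure; five concentrations; linearly interpolated endpoints. GI50 = concentration required for 50% inhibition of growth. TGI: total growth inhibition.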

We go through eight compounds from PubChem BioAssay (NCI).

Among the test systems are UACC-257 melanoma; U251 CNS; TK-10 renal; HCC-2998 colon; SNB-19 CNS; SF-268 CNS; MDA-MB-231 breast; IGROV1 ovarian; HCT-15 colon; A498 renal.
Holding throughout (experiment): inhibition of tumour cell growth, NCI panel, 48 h

As to `C=C(C)[C@@H]1CC[C@]2(C(=O)N3CCN(C)CC3)CC[C@]3(C)[C@H](CC[C@@H]4[C@@]5(C)C/C(=C/c6ccncc6)[C@H](O)C(C)(C)[C@@H]5CC[C@]43C)[C@@H]12`, the GI50 was 5.45 µM with UACC-257 melanoma; 5.64 µM in the assay on U251 CNS; 15.5 µM in the assay with TK-10 renal; 3.36 µM with HCC-2998 colon; 8.68 µM in the assay with SNB-19 CNS; 9.05 µM in the assay on SF-268 CNS. In addition, the GI50 is 4.46 µM in the assay on MDA-MB-231 breast, 6.62 µM with IGROV1 ovarian, 2.65 µM in the assay on HCT-15 colon and 17.4 µM in the assay with A498 renal. Moreover, the TGI was 27.8 µM in the assay on UACC-257 melanoma; 19.6 µM in the assay on U251 CNS; 89.4 µM with TK-10 renal; 13.1 µM with HCC-2998 colon; > 100 µM in the assay with SNB-19 CNS; 57.6 µM in the assay on SF-268 CNS. In addition, the TGI in the assay with MDA-MB-231 breast came out at 19.3 µM; with IGROV1 ovarian, 37.7 µM; in the assay with HCT-15 colon, 12.2 µM; in the assay with A498 renal it was 41.1 µM.
In the case of `COc1ccc(-c2cc(=O)c3c(OC)c(O)c(OC)cc3o2)cc1`, the TGI with UACC-257 melanoma is > 100 µM; with U251 CNS, > 100 µM; in the assay on TK-10 renal it was 94 µM; in the assay with HCC-2998 colon it was > 100 µM; with SNB-19 CNS, > 100 µM; with SF-268 CNS it was > 100 µM. The TGI was > 100 µM with MDA-MB-231 breast, > 100 µM in the assay with IGROV1 ovarian, > 100 µM in the assay on HCT-15 colon and 88.5 µM with A498 renal.
As to `CS(=O)(=O)OCCCCOS(C)(=O)=O`, the GI50 in the assay with UACC-257 melanoma is 571 µM; in the assay with U251 CNS it was 469 µM; in the assay with TK-10 renal, > 464 µM; in the assay with HCC-2998 colon it was > 1000 µM; with SNB-19 CNS, > 862 µM; in the assay on SF-268 CNS, 424 µM. For the same compound, the GI50 is > 250 µM in the assay with MDA-MB-231 breast, 981 µM in the assay on IGROV1 ovarian, > 903 µM with HCT-15 colon and > 883 µM in the assay on A498 renal. The TGI is 230 µM and > 1000 µM in the assay with UACC-257 melanoma; 238 µM and > 1000 µM in the assay with U251 CNS; > 464 µM in the assay on TK-10 renal; 201 µM and > 1000 µM in the assay with HCC-2998 colon; 233 µM and > 1000 µM in the assay on SNB-19 CNS; 223 µM and > 1000 µM in the assay with SF-268 CNS. Further, the TGI with MDA-MB-231 breast is > 1000 µM; with IGROV1 ovarian it was > 1000 µM; with HCT-15 colon, 236 µM and > 1000 µM; in the assay on A498 renal, 249 µM and > 1000 µM.
With `O=S1(=O)OCc2ccccc21`, the TGI in the assay with UACC-257 melanoma, with U251 CNS, in the assay on TK-10 renal, in the assay on HCC-2998 colon, in the assay with SNB-19 CNS and in the assay on SF-268 CNS was > 100 µM each time. The TGI in the assay on MDA-MB-231 breast, with IGROV1 ovarian, in the assay with HCT-15 colon and with A498 renal was > 100 µM throughout.
Take `C/C(=N\NC(=O)c1cccc(S(=O)(=O)N2CCN(C)CC2)c1)c1cc(Cl)ccc1O`: the GI50 with UACC-257 melanoma is 2.37 µM; in the assay with U251 CNS it was 0.414 µM; in the assay on TK-10 renal, 0.491 µM; with HCC-2998 colon, 0.571 µM; in the assay with SNB-19 CNS, 2.03 µM; in the assay on SF-268 CNS it was 0.933 µM. For the same compound, the GI50 is 0.667 µM with MDA-MB-231 breast, 0.677 µM in the assay on IGROV1 ovarian, 0.27 µM with HCT-15 colon and 40.6 µM in the assay on A498 renal. The TGI in the assay with UACC-257 melanoma was 25.8 µM; in the assay on U251 CNS, > 100 µM; in the assay with TK-10 renal, > 88.6 µM; in the assay with HCC-2998 colon, 28.7 µM; with SNB-19 CNS, > 100 µM; in the assay with SF-268 CNS, > 63.8 µM. For the same compound, the TGI in the assay on MDA-MB-231 breast is > 100 µM; in the assay with IGROV1 ovarian it was > 66.5 µM; in the assay with HCT-15 colon, > 43.6 µM; in the assay on A498 renal, > 100 µM.
In the case of `CN(C)C(=O)C(NCCO)c1ccccc1` (stereo not given), the TGI in the assay on UACC-257 melanoma, in the assay on U251 CNS, in the assay with TK-10 renal, in the assay with HCC-2998 colon, with SNB-19 CNS and in the assay with SF-268 CNS was > 100 µM in each case. For the same compound, the TGI in the assay with MDA-MB-231 breast, with IGROV1 ovarian, with HCT-15 colon and with A498 renal was > 100 µM throughout.
Consider `OCCNC(=S)Nc1ccc(-c2nc(N3C[C@H]4CC[C@@H](C3)O4)c3cccn3n2)cc1`, for which the GI50 in the assay with UACC-257 melanoma is 0.0354 µM; with U251 CNS, 0.114 µM; in the assay on TK-10 renal, 0.0269 µM; in the assay on HCC-2998 colon, 0.0779 µM; in the assay on SNB-19 CNS it was 0.189 µM; with SF-268 CNS, 0.079 µM. Moreover, the GI50 in the assay on MDA-MB-231 breast is 0.0583 µM; with IGROV1 ovarian it was 0.0165 µM; in the assay with HCT-15 colon, 0.0906 µM; in the assay with A498 renal it was < 0.01 µM. Also, the TGI in the assay on UACC-257 melanoma came to 0.467 µM; with U251 CNS, 11.6 µM; in the assay with TK-10 renal, 0.399 µM; with HCC-2998 colon it was 18.6 µM; with SNB-19 CNS, 13.2 µM; with SF-268 CNS, 25.8 µM. The TGI with MDA-MB-231 breast amounted to 6.57 µM; in the assay with IGROV1 ovarian, 0.15 µM; in the assay with HCT-15 colon it was 14.4 µM; with A498 renal, 0.0307 µM.
As to `COc1cc(-c2nn(-c3ccc(NC(=O)Nc4ccc(Cl)c(C(F)(F)F)c4)cc3)cc2-c2ccncc2)ccc1Cl`, the GI50 in the assay with UACC-257 melanoma was 1.64 µM; with U251 CNS, 1.21 µM; with TK-10 renal, 3.06 µM; with HCC-2998 colon, 1.64 µM; in the assay with SNB-19 CNS, 2.53 µM; in the assay with SF-268 CNS, 1.93 µM. Moreover, the GI50 in the assay on MDA-MB-231 breast is 1.76 µM; in the assay on IGROV1 ovarian, 2.06 µM; in the assay with HCT-15 colon, 1.44 µM; in the assay on A498 renal, 1.41 µM. In addition, the TGI was 3.69 µM in the assay with UACC-257 melanoma; 2.62 µM in the assay on U251 CNS; 13.2 µM in the assay with TK-10 renal; 3.1 µM in the assay on HCC-2998 colon; 8.13 µM in the assay on SNB-19 CNS; 5.01 µM with SF-268 CNS. Besides, the TGI in the assay on MDA-MB-231 breast was determined as 3.82 µM; with IGROV1 ovarian, 6.07 µM; in the assay with HCT-15 colon, 3.22 µM; in the assay on A498 renal, 3.54 µM.
